Assay results taken from publication PMC6106897, “Biocatalytic synthesis of acylated derivatives of troxerutin: their bioavailability and antioxidant properties in vitro” (Microbial Cell Factories, 2018).

What was measured:
[1] = Hydroxyl radical scavenging ability; conditions: sample concentration 20 μM
Description: (§1) Scavenging abilities of hydroxyl and ABTS radicals, and ORAC were measured as described previously with some modifications. A 759S UV/Vis spectrophotometer (Lengguang Technology, Shanghai, China) was used to determine the absorbance of HO· at 532 nm and ABTS^·+ at 734 nm. ORAC analysis was conducted using a Fluoroskan Ascent microplate reader (Thermo Electron Corp., Waltham, MA, USA) at excitation and emission wavelengths of 485 and 530 nm, respectively. Trolox or vitamin C (VC) was used as a positive control, the sample concentration was 20 μM, and all experiments were repeated independently in triplicate.

[2] = Transport experiment in Caco-2 monolayers; assay type: in vitro ADME, human; conditions: human, Caco-2
Description: (§2) The absorptions of troxerutin and its acylated derivatives was measured as described by Chen et al.. Caco-2 cells were cultured in DMEM supplemented with 10% FBS, 100 μg/mL streptomycin, and 100 U/mL penicillin at 37 °C in an atmosphere of 5% CO2 and the medium was changed every 2 days. Caco-2 cells used in this study were seeded onto 12-well translucent Transwell inserts (0.4 μm pore size, Corning Costar, Corning, NY, USA) at a density of 2.5 × 10^5 cells/mL and grown for 3 weeks. Transepithelial electrical resistance (TEER) and lucifer yellow were measured to detect the integrity of Caco-2 monolayers. TEER values were measured by using a voltammeter (Millicell ERS, Millipore, Bedford, MA, USA) and the amount of lucifer yellow transported to the basolateral side in a 2.5-h period was quantified by using a fluorospectrometer (Fluoroskan Ascent FL, Thermo Labsystems, Helsinki, Finland) at an excitation wavelength of 425 nm and emission wavelength of 530 nm. ALP activity was measured to detect the differentiation degree of Caco-2 monolayers by using an ALP Assay Kit.
(§3) Samples (100 μM, 0.5 mL) were placed on the apical (AP) side along with 1.5 mL of HBSS added to the basolateral (BL) side. […] The volume removed from the recipient side was replaced with fresh HBSS at 30, 60, 90, 120, and 150 min. The concentrations on the BL side were measured by HPLC. The apparent permeability coefficients (Papp, cm/s) were calculated according to the equation: Papp=dQ/dt×V/A×C0, where the dQ/dt is the permeability rate (μM/s) calculated from the slope of the amount of tested compounds transported versus time, V is the volume of the basolateral chamber (mL), A is the surface area of the inset (cm^2), and C0 is the initial concentration (μM) of the samples.

erythrocytes = experiment: Erythrocyte hemolysis induced by AAPH; assay type: cell-based, sheep; conditions: 20 μM sample, 200 mM AAPH, 2.5 h, 37 °C
Description: The hemolysis study was performed according to the method of Zhang et al. with some modifications. Erythrocytes from healthy sheep were centrifuged at 770×g for 10 min at 4 °C and washed three times with PBS. Equal amounts of erythrocyte suspension (20%, v/v) and sample solution (20 μM) were mixed and the mixture was incubated for 20 min at 37 °C. After adding 200 mM AAPH, incubation was continued for a further 2.5 h at the same temperature. The final reaction system was diluted with 8 mL PBS and then centrifuged at 1200×g for 10 min at 4 °C. The degree of hemolysis in the supernatant was determined by measuring the absorbance at 540 nm. To obtain the complete hemolysate, ultrapure water was added to the mixture. PBS was used as a negative control and Trolox was used as a positive control. These values were measured using a 756S UV/Vis spectrophotometer (Lengguang Technology). The treated supernatant was collected to measure the level of MDA. All experiments were performed independently in triplicate. The hemolysis rate was calculated using the equation: Hemolysis rate%=OD540of sample/OD540of complete hemolysis×100%.

[3] = ABTS radical scavenging ability; conditions: sample concentration 20 μM
Description: as §1

[4] = ORAC assay (fluorescence quenching induced by AAPH); conditions: 20 μM
Description: as §1

[5] = test system: erythrocyte lysate membrane lipid peroxidation; experiment: Lipid peroxidation (MDA release) after complete hemolysis; assay type: cell-based, sheep; conditions: erythrocytes completely hemolysed in cold ultrapure water, lysate treated with AAPH
[6] = 1-octanol/water partition coefficient (logP); assay type: physicochemical
Description: The 1-octanol/water partition coefficients of troxerutin and its propionyl derivatives were measured as previously described. Each compound was fully mixed with 1-octanol and then vigorously mixed with an equal amount of water. After equilibration for 30 min, the concentrations of compound in each layer were respectively measured by HPLC. The results are shown as common logarithms (logP).

Caco-2 monolayers = experiment: Transport experiment in Caco-2 monolayers; assay type: in vitro ADME, human; conditions: Caco-2 monolayers
Description: as §2, §3

[7] = after oral consumption; cited from earlier work

Row | Papp A→B at 150 min, 100 μM [2] [×10⁻⁶ cm/s] | Papp B→A at 150 min, 100 μM [2] [×10⁻⁶ cm/s] | logP at 30 min [6] | SMILES | Free radical scavenging ability HO· [1] | Inhibition effects on AAPH-induced erythrocyte hemolysis, rank order (erythrocytes) | Inhibition of AAPH-induced erythrocyte hemolysis (erythrocytes) | Free radical scavenging ability ABTS·+ [3] | Capacity to inhibit fluorescence quenching (ORAC), rank order [4] | Inhibition ability for membrane lipid peroxidation (MDA release), rank order [5] | Papp at 150 min, 100 μM [2] [×10⁻⁶ cm/s] | UR (uptake ratio = Papp AP–BL/Papp BL–AP) (Caco-2 monolayers) | Bioavailability [7] [%]
1 | 0.34 ± 0.05 | 0.35 ± 0.03 | – | C[C@@H]1O[C@@H](OC[C@H]2O[C@@H](Oc3c(-c4ccc(OCCO)c(OCCO)c4)oc4cc(OCCO)cc(O)c4c3=O)[C@H](O)[C@@H](O)[C@@H]2O)[C@H](O)[C@H](O)[C@H]1O [Troxerutin, troxerutin] | 97.1 ± 2.7 ab % | troxerutin < TME ≈ TDE | effectively inhibited | 96.8 ± 4.1 ab % | troxerutin ≈ TME > TDE | troxerutin ≈ TME > TDE | – | – | –
2 | 0.99 ± 0.12 | 1.05 ± 0.12 | < 0 | CCC(=O)OCCOc1ccc(-c2oc3cc(OCCO)cc(O)c3c(=O)c2OC2OC(COC3OC(C)C(O)C(O)C3O)C(O)C(O)C2O)cc1OCCO (centres unmarked) [TME] | 95.2 ± 3.5 b % | troxerutin < TME ≈ TDE | effectively inhibited | 90.4 ± 3.0 b % | troxerutin ≈ TME > TDE | troxerutin ≈ TME > TDE | – | – | –
3 | 48.9 ± 3.3 | 44 ± 2.98 | – | CC(C)NCC(O)COc1cccc2ccccc12 (centres unmarked) [Propranolol] | – | – | – | – | – | – | – | – | > 90

Second part, the compound before the results:

Row | SMILES | Papp A→B at 150 min, 100 μM [2] [×10⁻⁶ cm/s] | Papp B→A at 150 min, 100 μM [2] [×10⁻⁶ cm/s] | logP at 30 min [6] | Free radical scavenging ability HO· [1] | Inhibition effects on AAPH-induced erythrocyte hemolysis, rank order (erythrocytes) | Inhibition of AAPH-induced erythrocyte hemolysis (erythrocytes) | Free radical scavenging ability ABTS·+ [3] | Capacity to inhibit fluorescence quenching (ORAC), rank order [4] | Inhibition ability for membrane lipid peroxidation (MDA release), rank order [5] | Papp at 150 min, 100 μM [2] [×10⁻⁶ cm/s] | UR (uptake ratio = Papp AP–BL/Papp BL–AP) (Caco-2 monolayers) | Bioavailability [7] [%]
4 | CCC(=O)OCCOc1cc(O)c2c(=O)c(OC3OC(COC4OC(C)C(O)C(O)C4O)C(O)C(O)C3O)c(-c3ccc(OCCOC(=O)CC)c(OCCO)c3)oc2c1 (centres unmarked) [TDE] | 1.54 ± 0.17 | 1.53 ± 0.21 | 1.51 ± 0.05 | 89.7 ± 1.8 c % | troxerutin < TME ≈ TDE | effectively inhibited | 81.5 ± 2.1 c % | troxerutin ≈ TME > TDE | troxerutin ≈ TME > TDE | – | – | –
5 | C[C@@H]1O[C@@H](OC[C@H]2O[C@@H](Oc3c(-c4ccc(O)c(O)c4)oc4cc(O)cc(O)c4c3=O)[C@H](O)[C@@H](O)[C@@H]2O)[C@H](O)[C@H](O)[C@H]1O [Rutin, rutin] | 0.06 ± 0.01 | 0.06 ± 0.02 | – | – | – | – | – | – | – | 0.06 | 1.00 ± 0.05 | –
6 | O=C1O[C@H]([C@@H](O)CO)C(O)=C1O [VC, vitamin C, reference compound] | – | – | – | 99.3 ± 0.05 a % | – | – | 100 ± 0.02 a % | – | – | – | – | –
